Consider six compounds from patent publication US7459268B2, “Method for screening agent acting on cell wall” (Daiichi Pharmaceutical Co., Ltd., priority 2001, dated 2008).

Test [1] concerns AY-2 strain (wall-type arming yeast). Kind of test: GFP releasing effect of available antifungal agents, wall-type arming yeast. It is filed as cell-based, S. cerevisiae. As to conditions: RPMIB medium protected for osmotic pressure. As for the experimental part: (§1) The cultured yeast cells in the logarithmic growth phase (AY-2 strain or AY-12 strain) were collected, and various agents were allowed to act on the yeast cells. Fluorescence intensity of the culture supernatant was measured by using Cytofluor 2300 Fluorometer (Millipore, excitation=480 nm, emission=530 nm). The fluorescence intensity under treatment with each of various agents was shown in terms of a difference in fluorescence intensity compared with that of a control in which no agent was added.
(§2) In order to ascertain whether or not the aforementioned method can be utilized for a screening of agents with a targeting site other than Kre6p, the GFP releasing effects in the AY-2 strain (wall-type arming yeast) and the AY-12 strain (membrane-type arming yeast) were compared under actions of available antifungal agents. The AY-2 strain cells and the AY-12 strain cells each cultured in a test tube were suspended with a medium (RPMIB) protected for osmotic pressure, and each of the agents was allowed to act on the cells. After the culture, the fluorescence intensity of the supernatant was measured, and a difference from that of a control with no addition of the agent was calculated.

The subject of test [2] is AY-12 strain (membrane-type arming yeast). In words: GFP releasing effect of available antifungal agents, membrane-type arming yeast. Type of test: cell-based, S. cerevisiae. The note with it: RPMIB medium protected for osmotic pressure. As for the experimental part:
as §1, §2

Test [3] deals with AY-14 strain. Kind of test: GFP release by cell wall synthesis inhibitors. As to conditions: each agent alone. It is filed as cell-based, Saccharomyces cerevisiae. The text has this: As agents confirmed to have a yeast cell wall synthesis inhibitory action, tunicamycin (TM, Funakoshi, Tokyo), aculeacin A (AC, Wako Pure Chemical Industries, Osaka) and staurosporine (SP, Boehringer Mannheim, Tokyo) were used. The AY-14 strain was used as a microorganism.
Thus, it is evident that inhibitors for the (1,3)-β-glucan synthesis pathway, N-type saccharide chain synthesis pathway, saccharide chain (glucan) synthesis regulatory pathway and the like can also be screened.

The subject of test [4] is AY-14 strain. Kind of test: Molecular weight of released GFP by Western blotting after agent treatment. Type of test: cell-based, Saccharomyces cerevisiae. As to conditions: agent alone. As for the experimental part: Cells at the logarithmic growth phase were collected after inoculation to the liquid medium and culture at 30° C., and suspended in a fresh medium of the same type to prepare a cell suspension for inoculation. The cells were cultured at 30° C. Fluorescence intensity of the culture supernatant was measured (excitation=480 nm, emission=530 nm) by using ARVO sx (Wallac, Tokyo). The GFP releasing effect of the gene-disrupted strains was represented in terms of a difference with that of a non-gene-disrupted strain (AY-10u strain or AY12u strain). After the measurement of fluorescence intensity, the culture supernatants were concentrated by ultrafiltration. The concentrated supernatants were subjected to separation by SDS-PAGE and blotted on a PVDF membrane, and GFP was detected by using commercially available anti-GFP antibodies (rabbit IgG, Santa Cruz Biotechnology) to compare the molecular weights (Western blotting).
As agents confirmed to have a yeast cell wall synthesis inhibitory action, tunicamycin (TM, Funakoshi, Tokyo), aculeacin A (AC, Wako Pure Chemical Industries, Osaka) and staurosporine (SP, Boehringer Mannheim, Tokyo) were used. The AY-14 strain was used as a microorganism. […]

As to `C[C@@H]1[C@H](O)[C@@H](C)/C=C/C=C/C=C/C=C/C=C/C=C/C=C/[C@H](O[C@@H]2O[C@H](C)[C@@H](O)[C@H](N)[C@@H]2O)C[C@@H]2O[C@](O)(C[C@@H](O)C[C@@H](O)[C@H](O)CC[C@@H](O)C[C@@H](O)CC(=O)O[C@H]1C)C[C@H](O)[C@H]2C(=O)O` [Amphotericin B], the “GFP releasing effect (fluorescence intensity of culture supernatant, difference from control with no agent)” value in test [1] and in test [2] was “Slight releasing effect” each time.

Take `OC(Cn1cncn1)(Cn1cncn1)c1ccc(F)cc1F` [Fluconazole]: the “GFP releasing effect (fluorescence intensity of culture supernatant, difference from control with no agent)” value in test [1] and in test [2] was “Slight releasing effect” in each case.

With `CN[C@@H]1C[C@H]2O[C@@](C)([C@@H]1OC)n1c3ccccc3c3c4c(c5c6ccccc6n2c5c31)C(=O)NC4` [SP, staurosporine], the “release of GFP” value with AY-14 strain [3] is “release of GFP was observed”.

On to `CC[C@@H](C(=O)[C@@H](C)[C@@H](O)[C@H](C)[C@@H]1O[C@@H]([C@@H](CC)C(=O)O)CC[C@@H]1C)[C@H]1O[C@]2(C=C[C@@H](O)[C@]3(CC[C@@](C)([C@H]4CC[C@](O)(CC)[C@H](C)O4)O3)O2)[C@H](C)C[C@@H]1C` [Salinomycin], for which the “GFP releasing effect (fluorescence intensity of culture supernatant, difference from control with no agent)” value in test [1] and in test [2] was “Slight releasing effect” in each case.

Consider Aculeacin A, for which the “GFP releasing effect (fluorescence intensity of culture supernatant, difference from control with no agent)” value is “Marked GFP releasing effect” in test [1] and “almost no releasing effect” in test [2]. Also, the “release of GFP” value in the test with AY-14 strain [3] is “release of GFP was observed”.

Turning to Tunicamycin, the “GFP releasing effect (fluorescence intensity of culture supernatant, difference from control with no agent)” value in test [1] was “Marked GFP releasing effect”; in test [2] it was “almost no releasing effect”. The “molecular weight of released GFP compared with that in the absence of agent” value in the test on AY-14 strain [4] is “markedly lowered”. The “release of GFP” value in the test with AY-14 strain [3] is given as “release of GFP was observed”.
